Results on 3 compounds are retold here after US8420145B2, “Isosorbide derivatives and their use as flavor modifiers, tastants, and taste enhancers” (Senomyx, Inc., priority 2008, dated 2013).

The nature of data set [1]: Time-intensity testing: panelists rate umami intensity over 70 seconds. Type of data set: in vivo, human. As to conditions: for Average Intensity-at-Max (umami intensity): scale 0 to 100. On the procedure: Overview: Panelists Evaluate Various Solutions for Umami Intensity Over Time.
General procedure: Samples presented to panelists include various concentrations of MSG and compounds of interest. Samples may contain 0.1% ethanol to assist in dissolving compounds into solution. Samples are three-digit blind coded and served in 20 ml volumes. Samples are presented to panelists in randomized, counterbalanced order. All data is collected using the Compusense five software program. Umami intensity is rated on a scale from 0 to 100 (0=no umami intensity; 100=strong umami intensity). Panelists sip a sample and begin rating umami intensity. Panelists move the mouse on the horizontal scale to correspond to the umami intensity they perceive. Panelists continue rating the intensity for 70 seconds, and then expectorate the sample. The software program records an intensity score for each panelist for each 1 second period during the sample evaluation.
After tasting each sample, panelists sip and swish water in the mouth for a few seconds and expectorate. They may repeat this several times. Panelists wait 30 minutes before tasting the next sample.
Data analysis: Time-intensity curves are created for each of the samples and various parameters of the test are compared statistically.
To create the graphical representation of the sample: For each of the 70 seconds of the evaluation, panelists individual scores are averaged and presented graphically. For example, each panelist's intensity score at time=0 seconds is averaged and plotted. The same calculation is made for each of the 70 seconds to create the time-intensity curve.
To evaluate the Time to Maximum Intensity parameter: A time-intensity curve is created for each panelist. […] The specific time scores for each panelist are averaged. Next, the average scores for the various samples are compared using ANOVA, and multiple comparisons are performed using Tukey's Honestly Significant Difference test at alpha=0.05.

Another data set deals with un-induced I-17 cells. Put plainly: FLIPR assay on un-induced I-17 cells (no mifepristone, receptor not expressed). The format is cell-based. On the procedure: In order to determine the dependency of hT1R1/hT1R3 for the cell response to different stimuli, selected compounds were subjected to a similar analysis on I-17 cells that had not been induced for receptor expression with mifepristone (designated as un-induced I-17 cells). […] Compounds were presented to un-induced umami cells at 10 μM-or three times the maximum stimulation used in the dose-response analysis.

The mark [2] stands for this setting: 15 ppm (41.62 uM) in Low Sodium Buffer pH 7.1, n = 33.
Where [3] appears, read: 2.5 ppm (6.86 uM) in Low Sodium Buffer pH 7.1, n = 36.
[4] abbreviates: 12 mM in Low Sodium Buffer pH 7.1, n = 33.
[5] abbreviates: 12 mM in Low Sodium Buffer pH 7.1, n = 36.
Setting [6] is: 16 mM in Low Sodium Buffer pH 7.1, n = 36.

Where “and” joins values, the source holds several entries; their conditions need not be identical. Identical values can stand only once.

Take `O=C(N[C@H]1CO[C@H]2[C@@H]1OC[C@@H]2n1cc(CC2CCCCC2)nn1)C1CC1` [Example 1, N-((3S,3αR,6S,6αR)-6-(4(cyclohexylmethyl)-1H-1,2,3-triazol-1-yl)-hexahydrofuro[13,2-b]furan-3-yl)cyclopropanecarboxamide]: in data set [1] (setting [2]), the “Average Time-to-Max (time to maximum umami intensity)” value (shortened to “Average Time-to-Max”) was 14.9 s and the “Average Intensity-at-Max (umami intensity)” value (“Average Intensity-at-Max” for short) stood at 57. In data set [1] (15 ppm (41.62 uM), p<0.05), the “average intensity at maximum compared with Sample 1 (12 mM MSG), Tukey's HSD test” value is “significantly more savory”. In addition, in data set [1] (15 ppm (41.62 uM), p>0.1), the “average intensity at maximum compared with Sample 2 (16 mM MSG), Tukey's HSD test” value was “not significantly different” and the “average time to maximum intensity compared with Sample 2 (16 mM MSG), Tukey's HSD test” value was “not significantly different”.
For `O=C(CCCC1CCCCC1)N[C@H]1CO[C@H]2[C@@H]1OC[C@@H]2NC(=O)C1CC1` [Example 29, N-((3S,3αR,6S,6αR)-6-(4cyclohexylbutanamido)hexahydrofuro-[3,2-b]furan-3-yl)cyclopropanecarboxamide], the melting point (in general, the temperature of the solid-liquid transition) lay within 181.5 to 182.5 °C. For the same compound, the “average time to maximum intensity compared with Sample 4 (12 mM MSG) and Sample 5 (16 mM MSG), Tukey's HSD test” value in data set [1] (2.5 ppm (6.86 uM)) was “not significantly different”. For the same compound, in data set [1] (setting [3]), the “Average Time-to-Max” value amounted to 18.3 s and the “Average Intensity-at-Max” value was found to be 57.9. In addition, in data set [1] (2.5 ppm (6.86 uM), p>0.1), the “average intensity at max compared with Sample 4 (12 mM MSG) or Sample 5 (16 mM MSG), Tukey's HSD test” value is given as “not significantly different”.
Take `N[C@@H](CCC(=O)O)C(=O)[O-].[Na+]` [monosodium glutamate, Monosodium Glutamate]: the “functional response in the FLIPR assay” value in the data set on un-induced I-17 cells was “do not show any functional response”. Moreover, the “Average Time-to-Max” value was 15.9 s in data set [1] (setting [4]); 18.8 s in data set [1] (setting [5]); 17 s and 17.7 s in data set [1] (16 mM in Low Sodium Buffer pH 7.1, n = 33, listed as Sample 2); 16.3 s in data set [1] (setting [6]). The “Average Intensity-at-Max” value in data set [1] (setting [4]) came to 45.3; in data set [1] (setting [5]), 49.8; in data set [1] (16 mM in Low Sodium Buffer pH 7.1, n = 33) it was 53.8; in data set [1] (setting [6]), 62.9.
